These results are taken from US8912169B2, “Beta-lactamase inhibitors” (VenatoRx Pharmaceuticals, Inc., priority 2012, dated 2014).

For assay [1], the target named is T1, KPC-2 (Klebsiella pneumoniae, UniProt Q9F663).
T1 construct: made in house; host or cells: E. coli BL21(DE3)
Nature of the assay: β-lactamase enzyme inhibition, KPC-2. The format is biochemical. Conditions: substrate imipenem, 300 nm; read-out: Class A KPC-2 IC50. The essentials:
(§1)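 Native untagged β-lactamases expressed in E. coli BL21(DE3) and purified, then pre-incubated with inhibitor 15 min at 37 °C. Hydrolysis was followed by absorbance: 100 μM nitrocefin at 486 nm for p99 AmpC and OXA-1; imipenem at 300 nm for KPC-2; cefotaxime at 260 nm for SHV-5. IC50 from initial-rate inhibition versus uninhibited controls.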

The target of assay [2] is T2, SHV-5 (Klebsiella pneumoniae, UniProt P0A3M1).
T2 construct: made in house; host or cells: E. coli BL21(DE3)
Nature of the assay: β-lactamase enzyme inhibition, SHV-5. The format is biochemical. The essentials: as §1

The target in assay [3] is T3, OXA-1 (Escherichia coli, UniProt P13661).
T3 construct: made in house; host or cells: E. coli BL21(DE3)
Nature of the assay: β-lactamase enzyme inhibition, OXA-1. Conditions: substrate Nitrocefin 100 μM, 486 nm; read-out: Class D OXA-1 IC50. The format is biochemical. The essentials:
as §1

Assay [4] has as its target T4, p99 AmpC (Enterobacter cloacae, UniProt P05364).
T4 construct: made in house; host or cells: E. coli BL21(DE3)
Nature of the assay: β-lactamase enzyme inhibition, p99 AmpC. Format: biochemical. The essentials:
as §1

Assay [5] concerns the target T5, VIM-2 (Escherichia coli, UniProt Q5U7L7).
T5 construct: made in house; host or cells: E. coli BL21(DE3)
Nature of the assay: β-lactamase enzyme inhibition, VIM-2. Format: biochemical. The following applies: substrate Nitrocefin 100 μM, 486 nm; read-out: Class B VIM-2 IC50. In a few lines:
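Purified VIM-2 (Q sepharose, 50 mM Hepes pH 7.5, >90% purity) preincubated with inhibitor 15 min at 37° C, then nitrocefin added at 100 μM final. Hydrolysis followed at 486 nm for 10 min; IC50 from initial rates versus inhibitor-free control wells.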

In assay [6] the test system is P. aerug. Ps296 VIM-2. Nature of the assay: broth microdilution MIC, P. aeruginosa VIM-2. Format: cell-based. Conditions: Pseudomonas aeruginosa; partner antibiotic alone, P. aeruginosa expressing VIM-2. An excerpt:
To determine the ability of test compounds to potentiate the inhibition of the growth of bacterial strains that produce beta-lactamase enzymes, classic cell based broth microdilution MIC assays were employed. Six bacteria strains producing beta-lactamase enzymes were used: E. coli expressing the Class A Extended Spectrum Beta-Lactamase (ESBL) CTX-M-15, E. cloacae expressing the Class C P99, K. pneumoniae expressing the Class A carbapenemase KPC-3, P. aeruginosa expressing the Class B carbapenemase VIM-2, K. pneumoniae expressing the class A carbapenemase KPC-2 and the class B carbapenemase VIM-4, and S. aureus producing the Class A penicillinase PC-1. The assay was conducted in Cation Adjusted Mueller Hinton Broth (CAMHB, BD #212322, BD Diagnostic Systems, Sparks, Md.). Bacteria strains were grown for 3-5 hours in CAMBH broth. Test compounds were added to a microtiter plate in 2-fold serial dilutions in CAMHB in a final concentration range of 32 μg/mL to 0.25 μg/ml. An overlay of CAMHB containing a Beta-lactam was added to the compounds at a final static concentration of 4 μg/ml. […] In addition to the titration of test compounds the MICs of a panel of control beta-lactams is also tested to ensure the strains are behaving consistently from test to test. Once the test compound and antibiotics are added the plates can be inoculated according to CLSI broth microdilution method. After inoculation the plates are incubated for 16-20 hours at 37° C. then the Minimal Inhibitory Concentration (MIC) of the test compound is determined visually.
Using the methodology described above in EXAMPLE III, exemplary compounds for Formula I or Formula Ia were evaluated for their ability to inhibit the growth of β-lactamase producing bacteria in the presence of a β-lactam antibiotic.
Representative results are shown in Table 4 where A represents an MIC of the fixed β-lactam antibiotic in the presence of >32 μg/mL of a β-lactamase inhibitor of exemplary compounds, B represents the MIC in the presence of between 8 and 32 μg/mL of a β-lactamase inhibitor of exemplary compounds, and C represents the MIC in the presence of ≦4 μg/mL of a β-lactamase inhibitor of exemplary compounds. NT=Not Tested.

A value given as a limit tells only on which side of the number the result lay.

On to `N[C@H](CO)CN[C@H]1CC[C@H](CC(=O)N[C@H]2Cc3cccc(C(=O)O)c3OB2O)CC1` [Example 67, (R)-3-(2-(trans-4-((S)-2-amino-3-hydroxypropylamino)cyclohexyl)acetamido)-2-hydroxy-3,4-dihydro-2H-benzo[e][1,2]oxaborinine-8-carboxylic acid], for which the IC50 in assay [1] was < 100 nM; in assay [2] it was < 100 nM; in assay [3], < 100 nM; in assay [4], < 100 nM; in assay [5], 100 to 1000 nM.
For the compound `NCC(=O)N[C@H]1CC[C@H](CC(=O)N[C@H]2Cc3cccc(C(=O)O)c3OB2O)CC1` [Example 68, (R)-3-(2-(trans-4-(2-aminoacetamido)cyclohexyl)acetamido)-2-hydroxy-3,4-dihydro-2H-benzo[e][1,2]oxaborinine-8-carboxylic acid], the IC50 was < 100 nM in assay [1]; < 100 nM in assay [2]; < 100 nM in assay [3]; < 100 nM in assay [4]; 100 to 1000 nM in assay [5].
For the compound `O=C(C[C@H]1CC[C@H](N(Cc2ncc[nH]2)Cc2ncc[nH]2)CC1)N[C@H]1Cc2cccc(C(=O)O)c2OB1O` [Example 69, (R)-3-(2-(trans-4-(bis((1H-imidazol-2-yl)methyl)amino)cyclohexyl)acetamido)-2-hydroxy-3,4-dihydro-2H-benzo[e][1,2]oxaborinine-8-carboxylic acid], the IC50 in assay [1], in assay [2], in assay [3], in assay [4] and in assay [5] was < 100 nM each time.
Take `O=C(C[C@H]1CC[C@H](NCc2cnc[nH]2)CC1)N[C@H]1Cc2cccc(C(=O)O)c2OB1O` [Example 70, (R)-3-(2-(trans-4-((1H-imidazol-5-yl)methylamino)cyclohexyl)acetamido)-2-hydroxy-3,4-dihydro-2H-benzo[e][1,2]oxaborinine-8-carboxylic acid]: the IC50 in assay [1] is < 100 nM; in assay [2], < 100 nM; in assay [3], < 100 nM; in assay [4], < 100 nM; in assay [5] it was 100 to 1000 nM.
On to `CC(C)NCCN[C@H]1CC[C@H](CC(=O)N[C@H]2Cc3cccc(C(=O)O)c3OB2O)CC1` [Example 71, (R)-2-hydroxy-3-(2-(trans-4-(2-(isopropylamino)ethylamino)cyclohexyl)acetamido)-3,4-dihydro-2H-benzo[e][1,2]oxaborinine-8-carboxylic acid], for which the IC50 in assay [1], in assay [2], in assay [3], in assay [4] and in assay [5] was < 100 nM each time.
Take `O=C(C[C@H]1CC[C@H](NCCNc2ncccn2)CC1)N[C@H]1Cc2cccc(C(=O)O)c2OB1O` [Example 72]: the IC50 in assay [1] is < 100 nM; in assay [2], < 100 nM; in assay [3], < 100 nM; in assay [4] it was < 100 nM; in assay [5], 100 to 1000 nM.
As for `O=C(C[C@H]1CC[C@H](NCCNC2CCCC2)CC1)N[C@H]1Cc2cccc(C(=O)O)c2OB1O` [Example 73, (R)-3-(2-(trans-4-(2-(cyclopentylamino)ethylamino)cyclohexyl)acetamido)-2-hydroxy-3,4-dihydro-2H-benzo[e][1,2]oxaborinine-8-carboxylic acid], the IC50 in assay [1], in assay [2], in assay [3], in assay [4] and in assay [5] was < 100 nM throughout.
On to `O=C(C[C@H]1CC[C@H](NCCNCC2CC2)CC1)N[C@H]1Cc2cccc(C(=O)O)c2OB1O` [Example 74, (R)-3-(2-(trans-4-(2-(cyclopropylmethylamino)ethylamino)cyclohexyl)acetamido)-2-hydroxy-3,4-dihydro-2H-benzo[e][1,2]oxaborinine-8-carboxylic acid], for which the IC50 in assay [1], in assay [2], in assay [3], in assay [4] and in assay [5] was < 100 nM throughout.
With `O=C(C[C@H]1CC[C@H](NCCN(CC2CC2)CC2CC2)CC1)N[C@H]1Cc2cccc(C(=O)O)c2OB1O` [Example 75, (R)-3-(2-(trans-4-(2-(bis(cyclopropylmethyl)amino)ethylamino)cyclohexyl)acetamido)-2-hydroxy-3,4-dihydro-2H-benzo[e][1,2]oxaborinine-8-carboxylic acid], the IC50 in assay [1], in assay [2], in assay [3], in assay [4] and in assay [5] was < 100 nM each time.
Take `NCCC(N)[C@H]1CC[C@H](CC(=O)N[C@H]2Cc3cccc(C(=O)O)c3OB2O)CC1` (stereo partly drawn) [Example 76, (R)-3-(2-(trans-4-(1,3-diaminopropyl)cyclohexyl)acetamido)-2-hydroxy-3,4-dihydro-2H-benzo[e][1,2]oxaborinine-8-carboxylic acid]: the IC50 in assay [1], in assay [2], in assay [3], in assay [4] and in assay [5] was < 100 nM throughout.
Regarding `NCC(N)[C@H]1CC[C@H](CC(=O)N[C@H]2Cc3cccc(C(=O)O)c3OB2O)CC1` (stereo partly drawn) [Example 77, (R)-3-(2-(trans-4-(1,2-diaminoethyl)cyclohexyl)acetamido)-2-hydroxy-3,4-dihydro-2H-benzo[e][1,2]oxaborinine-8-carboxylic acid], the IC50 was 100 to 1000 nM in assay [1]; < 100 nM in assay [2]; < 100 nM in assay [3]; < 100 nM in assay [4]; 100 to 1000 nM in assay [5].
`CCNCCN[C@H]1CC[C@H](CC(=O)N[C@H]2Cc3cccc(C(=O)O)c3OB2O)CC1` [Example 78, (R)-3-(2-(trans-4-(2-(ethylamino)ethylamino)cyclohexyl)acetamido)-2-hydroxy-3,4-dihydro-2H-benzo[e][1,2]oxaborinine-8-carboxylic acid]: the IC50 in assay [1], in assay [2], in assay [3], in assay [4] and in assay [5] was < 100 nM each time.
On to `CN(C)CCN[C@H]1CC[C@H](CC(=O)N[C@H]2Cc3cccc(C(=O)O)c3OB2O)CC1` [Example 79, (R)-3-(2-(trans-4-(2-(dimethylamino)ethylamino)cyclohexyl)acetamido)-2-hydroxy-3,4-dihydro-2H-benzo[e][1,2]oxaborinine-8-carboxylic acid], for which the IC50 in assay [1], in assay [2], in assay [3], in assay [4] and in assay [5] was < 100 nM in each case.
Take `C[C@@H](O)[C@H]1C(=O)N2C(C(=O)O)=C(S[C@@H]3CN[C@H](C(=O)N(C)C)C3)[C@H](C)[C@H]12` [Meropenem, reference compound]: the MIC in assay [6] worked out at 16 µg/mL.
